Measurements from US20040152745A1, “Dipeptidyl peptidase IV inhibitors and methods of making and using dipeptidyl peptidase IV inhibitors” (Guilford Pharmaceuticals, Inc., priority 1999, published 2004).

Tested on: organotypic spinal motor neurons
Test: organotypic spinal motor neuron / THA neuroprotection assay
Format: cell-based, Sprague-Dawley rat
Conditions: exposure of neurons with THA alone
Method: Each experiment consists of two 6-well plates with 5 slices from 4 different animals per well. Media changes are performed every 3 to 4 days. Cultures are treated with THA [L(−)-threo-3-hydroxyaspartic acid; Tocris Cookson Inc., Ballwin, Mo.] at 200 μM+compound (10 μM) after one week in culture. The control is an untreated sample with 0.1% DMSO as vehicle. The THA control is a THA treated sample with 0.1% DSMO as vehicle. Two wells are used per condition. One media change with new THA and compounds is performed. The experiment is stopped 6 to 8 days following drug treatment (13-15 total days in vitro, DIV) as dictated by visual assessment of lesion, by fixation with 4% paraformaldehyde/0.1 M phosphate buffer for 30 minutes. Slices are permeabilized with 100% cold methanol for 10 minutes. Slices are transferred to staining wells. […]
Quantification of surviving neurons is performed on a Ziess Axiovert microscope. Neuronal survival is determined by observing an intact neuronal cell body with processes located ventrally of the central canal in each hemisphere. […] Each hemisphere is counted individually. The statistics can be performed with StatView software on a minimum of three different experiments per condition and significance should be determined as compared to THA control. The percent of protection can be determined from the average number of living neurons by the following equation: […]

`N[C@H](C(=O)O)[C@H](O)C(=O)O` [THA, L(−)-threo-3-hydroxyaspartic acid] was tested, and the “death of the neurons” value was 55-60%.
